Experimental findings from ChEMBL document CHEMBL3396963, “Scaffold hopping: exploration of acetanilide-containing uracil analogues as potential NNRTIs” (Bioorg Med Chem, 2015) are described below.

Each structure is given as a SMILES string. The source made the active and inactive calls. The rule behind the calls is not given here.

What is called IC50 is the point on the concentration scale where inhibition reaches its midpoint. In general, CC50 refers to the concentration at which the toxic effect on the cells reaches its halfway point. For orientation: EC50 means the concentration needed to bring the measured effect to its halfway point. Broadly, the Ki is a measure of affinity in units of concentration, obtained from inhibition or displacement.

The nature of series [1]: Selectivity index, ratio of CC50 for human MT4 cells to EC50 for HIV1 3B infected in human MT4 cells. Format: toxicity, cell-based. To be noted: HIV-1 3B infected MT4 cells, read-out: Ratio CC50/EC50.
Series [2] concerns the target T1, Human immunodeficiency virus type 1 reverse transcriptase (Human immunodeficiency virus 1, UniProt Q72547). As to the kind of experiment: Inhibition of HIV1 recombinant wild type reverse transcriptase p66/p51 pre-incubated with compound before enzyme addition using poly(rA) template and measured after 40 mins by picogreen based spectrofluorometry.
The target in series [3] is T1, Human immunodeficiency virus type 1 reverse transcriptase. As to the kind of experiment: Inhibition of HIV1 ribonuclease H pre-incubated with compound before enzyme addition using RNA/DNA heteroduplex and measured after 60 mins by picogreen based spectrofluorometry.
Series [4] can be described thus: Cytotoxicity against human MT4 cells assessed as reduction in cell viability. Format: cell-based.
Series [5] has as its system Human immunodeficiency virus 1. The series can be described thus: Antiviral activity against HIV1 3B infected in human MT4 cells exposed to MT4 cell CC50 level of compound added after 1 to 25 hrs post virus infection following 1 hr virus adsorption period assessed as assessed as inhibition of virus-induced cytopathogenic effect. Format: functional, organism-based. Background: Protection from cytopathic effect is a common read-out in antiviral testing.

The test system of series [6] is Human immunodeficiency virus 1. The series can be described thus: Antiviral activity against HIV1 3B infected in human MT4 cells exposed to MT4 cell CC50 level of compound added after 1 to 25 hrs post virus infection following 1 hr virus adsorption period assessed as inhibition of virus production measured at 31 hrs post infection by p24 ELISA method. Format: functional, organism-based. (In general: In an ELISA, binding on a coated surface is turned into a signal by an enzyme label.)

Series [7] has as its system Human immunodeficiency virus 1. The series can be described thus: Antiviral activity against HIV1 3B expressing reverse transcriptase K103N/Y181C mutant infected in human MT4 cells assessed as inhibition of virus-induced cytopathogenic effect. Format: functional, organism-based.
Series [8] has as its system Human immunodeficiency virus 1. The series can be described thus: Antiviral activity against HIV1 3B infected in human MT4 cells assessed as inhibition of virus-induced cytopathogenic effect. Type of series: functional, organism-based. The settings on record: Human immunodeficiency virus 1, 3B.
Series [9] has as its target Human immunodeficiency virus type 1 reverse transcriptase (Human immunodeficiency virus 1, UniProt Q72547, L100I). The series can be described thus: Inhibition of HIV1 reverse transcriptase L100I mutant using radioactively-labeled […] substrate and activated DNA as template-primer complex.
Series [10] deals with Human immunodeficiency virus type 1 reverse transcriptase (Human immunodeficiency virus 1, UniProt Q72547, G190A). The series can be described thus: Inhibition of HIV1 reverse transcriptase G190A mutant using radioactively-labeled […] substrate and activated DNA as template-primer complex.
Series [11] deals with Human immunodeficiency virus type 1 reverse transcriptase (Human immunodeficiency virus 1, UniProt Q72547, K103N). As to the kind of experiment: Inhibition of HIV1 reverse transcriptase K103N mutant using radioactively-labeled […] substrate and activated DNA as template-primer complex.
Series [12] deals with Human immunodeficiency virus type 1 reverse transcriptase (Human immunodeficiency virus 1, UniProt Q72547, V106A). As to the kind of experiment: Inhibition of HIV1 reverse transcriptase V106A mutant using radioactively-labeled […] substrate and activated DNA as template-primer complex.
Series [13] concerns the target Human immunodeficiency virus type 1 reverse transcriptase (Human immunodeficiency virus 1, UniProt Q72547, Y181C). As to the kind of experiment: Inhibition of HIV1 reverse transcriptase Y181C mutant using radioactively-labeled […] substrate and activated DNA as template-primer complex.
For series [14], the target named is Human immunodeficiency virus type 1 reverse transcriptase (Human immunodeficiency virus 1, UniProt Q72547, K103N/Y181C). As to the kind of experiment: Inhibition of HIV1 reverse transcriptase K103N/Y181C mutant using radioactively-labeled […] substrate and activated DNA as template-primer complex.

Take `Cc1cc(C)cc(Cn2c(=O)ccn(CC(=O)NCc3ccccc3)c2=O)c1`: the selectivity ratio in series [1] is below 1. In addition, the IC50 was 194 µM in series [2] and “Not Active” in series [3]. In addition, the CC50 in series [4] was determined as 191 µM. Besides, the inhibition result in series [5], in series [6] and in series [7] was “inactive” throughout. Further, the EC50 in series [8] was above 191 µM.
On to `Cc1cc(C)cc(Cn2c(=O)ccn(CC(=O)Nc3ccccc3Cl)c2=O)c1`, for which the selectivity ratio in [1] came to 17. In addition, the IC50 in series [2] was 15.7 µM; in [3], “Not Active”. Moreover, in [4], the CC50 is 28.5 µM. For the same molecule, the inhibition result in [5], in series [6] and in series [7] was “inactive” in each case. Also, the EC50 in series [8] is 1.71 µM.
For the molecule `Cn1c(=O)ccn(Cc2ccccc2OCC(=O)Nc2ccccc2)c1=O`, the selectivity ratio in series [1] was below 1. For the same molecule, the Ki in series [2] is above 100 µM. Also, the CC50 in series [4] was found to be 153 µM. In series [8], the EC50 is above 153 µM.
For `Cc1cn(Cc2ccccc2OCC(=O)Nc2ccccc2Cl)c(=O)n(C)c1=O`, in series [1], the selectivity ratio was below 1. Further, in [2], the Ki is above 100 µM. Also, the CC50 in series [4] came out at 14.8 µM. Also, in series [8], the EC50 was above 14.8 µM.
As for `Cc1ccnc2c1NC(=O)c1cccnc1N2C1CC1` [NEVIRAPINE], the CC50 in series [4] is above 15 µM.
Take `Cc1cc(C)cc(Cn2c(=O)ccn(CC(=O)Nc3ccccc3C)c2=O)c1`: in [1], the selectivity ratio was 38. Moreover, the IC50 in [2] was 68.8 µM; in [3], “Not Active”. Also, the CC50 in series [4] came to 292 µM. The inhibition entry in series [5], in series [6] and in series [7] was “inactive” in each case. Also, in series [8], the EC50 amounted to 7.68 µM.
For `O=C(Cn1ccc(=O)n(Cc2cccc3ccccc23)c1=O)Nc1ccccc1Cl`, the selectivity ratio in series [1] was determined as 26. For the same molecule, the figures for the IC50 in series [2] and in series [3] were 44.5 µM and “Not Active”, respectively. Besides, the CC50 in series [4] was 207 µM. In addition, the inhibition result in series [5], in [6] and in series [7] was “inactive” throughout. The EC50 in [8] amounted to 7.94 µM.
Turning to `C=CCn1c(=O)ccn(Cc2ccccc2OCC(=O)Nc2ccccc2Cl)c1=O`, in series [1], the selectivity ratio was below 1. Besides, the Ki in [2] is above 100 µM. Moreover, in series [4], the CC50 was found to be 30.6 µM. In addition, in [8], the EC50 is above 30.6 µM.
The matching figures for `Cn1c(=O)ccn(Cc2ccccc2OCC(=O)Nc2cccc(Cl)c2)c1=O`: below 1, above 100 µM, 288 µM and above 288 µM.
For the molecule `COc1ccccc1NC(=O)Cn1ccc(=O)n(Cc2cc(C)cc(C)c2)c1=O`, the selectivity ratio in [1] is 16. The results for the IC50 in [2] and in series [3] were 211 µM and “Not Active”, respectively. Also, the CC50 in series [4] came out at 227 µM. In addition, the inhibition entry in [5], in series [6] and in [7] was “inactive” in each case. For the same molecule, the EC50 in [8] came to 14.5 µM.
As for `Cc1cc(C)cc(Cn2c(=O)ccn(CC(=O)Nc3cccc(Cl)c3)c2=O)c1`, the selectivity ratio in [1] amounted to 6. Further, the figures for the IC50 in series [2] and in [3] were 114 µM and “Not Active”, respectively. The CC50 in series [4] worked out at 167 µM. The inhibition entry in series [5], in [6] and in [7] was “inactive” in each case. Also, the EC50 in series [8] was determined as 29.5 µM.
Turning to `Cn1c(=O)c(Cl)cn(Cc2ccccc2OCC(=O)Nc2ccccc2Cl)c1=O`, the selectivity ratio in [1] was below 1. Also, the Ki in [2] is above 100 µM. In [4], the CC50 was determined as 9.37 µM. Further, the EC50 in [8] is above 9.37 µM.
With `Cc1cc(C)cc(Cn2c(=O)ccn(CC(=O)Nc3ccc(Cl)cc3)c2=O)c1`, in [1], the selectivity ratio came to 11. Moreover, the IC50 in [2] was 62.9 µM; in [3] it was “Not Active”. The CC50 in series [4] came to 77.5 µM. The inhibition result in [5], in series [6] and in [7] was “inactive” each time. In addition, the EC50 in series [8] is 7.29 µM.
With `Cc1cc(C)cc(Cn2c(=O)ccn(CC(=O)Nc3ccccc3)c2=O)c1`, the selectivity ratio in series [1] turned out to be 25. The figures for the IC50 in series [2] and in series [3] were 79.3 µM and “Not Active”, respectively. Further, in series [4], the CC50 is 242 µM. For the same molecule, the inhibition entry in series [5], in [6] and in series [7] was “inactive” each time. In addition, the EC50 in [8] turned out to be 9.68 µM.
Consider `Cc1cc(Br)cc(Cn2c(=O)ccn(CC(=O)Nc3ccccc3)c2=O)c1`, for which, in [1], the selectivity ratio came to 17. For the same molecule, the figures for the IC50 in [2] and in series [3] were 12.1 µM and “Not Active”, respectively. Further, in [4], the CC50 is 33.1 µM. Besides, the inhibition result in series [5], in [6] and in series [7] was “inactive” throughout. Moreover, the EC50 in series [8] stood at 2.01 µM.
As to `O=C1Nc2ccc(Cl)cc2[C@@](C#CC2CC2)(C(F)(F)F)O1` [EFAVIRENZ], the CC50 in series [4] is above 6 µM.
For `Cn1c(=O)ccn(Cc2ccccc2OCC(=O)Nc2ccc(Cl)cc2)c1=O`, the selectivity ratio in series [1] is below 1. Also, the Ki in [2] is above 100 µM. For the same molecule, the CC50 in series [4] is 100 µM. In series [8], the concentration for a half-maximal effect (EC50) is above 100 µM.
For the molecule `CCCn1c(=O)ccn(Cc2ccccc2OCC(=O)Nc2ccccc2Cl)c1=O`, the selectivity ratio in [1] was below 1. The Ki in series [2] is above 100 µM. For the same molecule, in [4], the CC50 was determined as 25.4 µM. Besides, the EC50 in series [8] is above 25.4 µM.
The matching figures for `Cn1c(=O)c(F)cn(Cc2ccccc2OCC(=O)Nc2ccccc2Cl)c1=O`: below 1, above 100 µM, 30.3 µM and above 30.3 µM.
For `Cn1c(=O)ccn(Cc2ccccc2OCC(=O)Nc2ccccc2Cl)c1=O` the same measures were below 1, above 100 µM, 141 µM and above 141 µM.
As to `O=C(Cn1ccc(=O)n(Cc2cc(Cl)cc(Cl)c2)c1=O)Nc1ccccc1Cl`, the Ki in series [9] stood at 15.9 µM; in [2], 4.5 µM; in [10] it was 20 µM; in series [11], 63.3 µM; in [12], 67.6 µM; in [13], 15.4 µM. For the same molecule, in [14], the Ki worked out at 69.9 µM. Moreover, the selectivity ratio in series [1] is 10. In addition, the IC50 came out at 12.7 µM in series [2] and 149 µM in series [3] (read-out: IC50). The CC50 in series [4] came to 31.1 µM. The inhibition result in [5], in [6] and in series [7] was “inactive” each time. For the same molecule, the EC50 in series [8] stood at 3.26 µM.
Turning to `Cc1cc(C)cc(Cn2c(=O)ccn(CC(=O)Nc3cccc(C)c3C)c2=O)c1`, the selectivity ratio in series [1] stood at 8. The IC50 in [2] is above 300 µM; in series [3] it was “Not Active”. Also, the CC50 in series [4] turned out to be 276 µM. Besides, the inhibition entry in series [5], in [6] and in series [7] was “inactive” in each case. Moreover, in series [8], the EC50 was 35.8 µM.
In the case of `Cn1c(=O)ccn(Cc2ccccc2OCC(=O)Nc2cc(Cl)ccc2Cl)c1=O`, the selectivity ratio in [1] was below 1. Besides, the Ki in series [2] was above 100 µM. The CC50 in series [4] came out at 29.5 µM. Moreover, the EC50 in series [8] was above 29.5 µM.
Regarding `Cc1ccccc1NC(=O)COc1ccccc1Cn1ccc(=O)n(C)c1=O`, the selectivity ratio in series [1] was below 1. Also, in series [2], the Ki was above 100 µM. Besides, the CC50 in [4] was found to be 152 µM. Also, the EC50 in [8] was above 152 µM.
